Data: PubChem BioAssay (NCI)
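Results reflect a 48-hour exposure of cells in 96-well plates to compound at five concentrations. GI50: concentration for 50% inhibition of growth. At the TGI there is no net growth.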

Assays:
Assay in all cases: inhibition of tumour cell growth, NCI panel, 48 h
[1] = system: HOP-62 NSCLC
[2] = system: U251 CNS
[3] = system: NCI-H460 lung
[4] = system: NCI-H226 lung
[5] = system: SF-295 CNS
[6] = system: HCC-2998 colon
[7] = system: SF-268 CNS
[8] = system: UACC-257 melanoma
[9] = system: IGROV1 ovarian
[10] = system: OVCAR-8 ovarian

Row | Structure (SMILES) | GI50 [1] | TGI [1] | GI50 [2] | TGI [2] | GI50 [3] | TGI [3] | GI50 [4] | TGI [4] | GI50 [5] | TGI [5] | GI50 [6] | TGI [6] | GI50 [7] | TGI [7] | GI50 [8] | TGI [8] | GI50 [9] | TGI [9] | GI50 [10] | TGI [10]
1 | CN(c1ccc(C#N)c(Cl)c1)C1CCC(NC(=O)c2ccc(N3CCN(C4CN(c5ccc6c(c5)C(=O)N(C5CCC(=O)NC5=O)C6=O)C4)CC3)cc2)CC1 (stereo not drawn) | > 100 µM | > 100 µM | 61.2 µM | > 100 µM | > 100 µM | > 100 µM | > 100 µM | > 100 µM | > 100 µM | > 100 µM | > 100 µM | > 100 µM | > 100 µM | > 100 µM | > 100 µM | > 100 µM | > 100 µM | > 100 µM | > 100 µM | > 100 µM
2 | CCCCCCCCCCCCCP(=O)(NCC(N)=O)OCC (stereo not drawn) |  | 32 µM |  | 33 µM |  | 39.8 µM |  | 33.5 µM |  | 31.2 µM |  | 35.3 µM |  | 38.4 µM |  | 36.1 µM |  | 39.4 µM |  | 45.8 µM
3 | O=C(CCc1nc(=S)[nH][nH]1)Nc1cccc(C(F)(F)F)c1 |  | > 100 µM |  | > 100 µM |  | > 100 µM |  | > 100 µM |  | > 100 µM |  | > 100 µM |  | > 100 µM |  | > 100 µM |  | > 100 µM |  | > 100 µM
4 | CCOC1OC(=O)[C@H]2[C@@H]1[C@@H]1CC[C@H]2O1 (stereo partly drawn) | > 100 µM | > 100 µM | > 100 µM | > 100 µM | > 100 µM | > 100 µM | > 100 µM | > 100 µM | > 100 µM | > 100 µM | 13.4 µM | 29.5 µM | > 100 µM | > 100 µM | > 100 µM | > 100 µM | > 100 µM | > 100 µM | > 100 µM | > 100 µM
5 | COc1cc2c(c(OC)c1OC)-c1c(cc3c(c1OC)OCO3)CC(C)C(C)(O)C2OC(=O)c1ccccc1 (stereo not drawn) |  | > 100 µM |  | > 100 µM |  | > 100 µM |  | > 100 µM |  | > 100 µM |  | > 100 µM |  | > 100 µM |  | > 100 µM |  | > 100 µM |  | > 100 µM
6 | CCN(CC)CCCC(C)Nc1c(-c2ccccc2)cnc2cc(Cl)ccc12 (stereo not drawn) | 9.62 µM | 22.9 µM | 6.84 µM | 20.5 µM | 6.99 µM | 19.8 µM | 15.7 µM | 31.6 µM | 2.78 µM | 9 µM | 2.34 µM | 5.62 µM | 10.3 µM | 27.3 µM | 2.46 µM | 6.28 µM | 11.8 µM | 31.4 µM | 11.9 µM | 32.3 µM
7 | O=C(Nc1cnc(C(F)(F)F)cn1)c1cc(Cl)ccc1O | 0.266 µM | 2.35 µM | 0.352 µM | > 100 µM | 0.332 µM | 15.2 µM | 0.322 µM | 23.9 µM | 0.255 µM | 0.675 µM | 0.294 µM | 4.6 µM | 0.296 µM | 94.1 µM | 0.267 µM | 0.781 µM | 0.374 µM | > 100 µM | 0.365 µM | 61.8 µM
8 | O=C1/C(=C/c2cccc(Br)c2)COc2ccc(O)c(O)c21 | 1.84 µM | 3.74 µM | 1.1 µM | 2.29 µM | 2.14 µM | 5.42 µM | 2.4 µM | 6.81 µM | 2.75 µM | 7.39 µM | 1.67 µM | 3.1 µM | 1.63 µM | 4.08 µM | 1.54 µM | 3.03 µM | 0.996 µM | 2.68 µM | 1.06 µM | 2.86 µM
9 | O=C(O)COc1ccc(C(=O)/C(SS/C(C(=O)c2ccc(OCC(=O)O)c(Cl)c2Cl)=C2\C=C(c3ccc(Br)cc3)SS2)=C2/C=C(c3ccc(Br)cc3)SS2)c(Cl)c1Cl |  | 54.1 µM |  | 28.2 µM |  | > 71.8 µM |  | 42.1 µM |  | 43.3 µM |  | > 42.8 µM |  | 34 µM |  | > 67.4 µM |  | 23.1 µM |  | > 76 µM
10 | O=NN(CCCl)C(=O)NC1CCC(=O)NC1=O (stereo not drawn) |  | 505 µM |  | 305 µM |  | 463 µM |  | 583 µM |  | 331 µM |  | > 1160 µM |  | 615 µM |  | 975 µM |  | 1140 µM |  | 293 µM
11 | CC(=O)NNc1nc(C)c(C(=O)/C=C/c2ccc(/C=C/C(=O)c3sc(NNC(C)=O)nc3C)cc2)s1 |  | > 100 µM |  | > 100 µM |  | > 100 µM |  | > 100 µM |  | > 100 µM |  | > 100 µM |  | > 100 µM |  | > 100 µM |  | > 100 µM |  | > 100 µM
12 | Brc1cccc(-c2cc(-c3ccc4nccnc4c3)[nH]n2)c1 | 1.02 µM | > 250 µM | 0.938 µM | 75.2 µM | 0.729 µM | > 60 µM |  | > 250 µM | 1.11 µM | > 250 µM | 3.25 µM | > 250 µM | 3.68 µM | > 250 µM |  | > 250 µM | 0.877 µM | > 250 µM | 1.39 µM | > 250 µM
13 | COc1cccc(C2C(C#N)=C(N)Oc3c2ccc2ccccc32)c1 (stereo not drawn) | 0.0203 µM | 16.2 µM | 0.0213 µM | 11.1 µM | 0.0246 µM | 1.18 µM | 0.0208 µM | 1 µM | < 0.01 µM | 10.7 µM | 0.0355 µM | 1.1 µM | 0.0315 µM | 10.5 µM | 0.901 µM | 32.8 µM | 0.0205 µM | 14.3 µM | 0.0346 µM | 19.2 µM
14 | COC1(C)C(=O)N2C1N(C(=O)OCc1ccccc1)CC2(C)C (stereo not drawn) |  | > 100 µM |  | > 100 µM |  | > 100 µM |  | > 100 µM |  | > 100 µM |  | > 100 µM |  | > 100 µM |  | > 100 µM |  | > 100 µM |  | > 100 µM
15 | C=C1C(=O)O[C@H]2[C@H]1CC/C(CNC(=O)/C=C/c1ccccc1)=C\CC[C@@]1(C)O[C@@H]21 | 3.37 µM | 14 µM | 1.77 µM | 3.55 µM | 2.18 µM | 5.05 µM | 2.5 µM | 6.59 µM | 5.25 µM | 18.7 µM | 1.78 µM | 3.31 µM | 2.86 µM | 8.88 µM | 1.53 µM | 3.99 µM | 1.7 µM | 5.01 µM | 2.44 µM | 9.78 µM
16 | O=[N+]([O-])c1ccc2c(Nc3ccccc3-c3ccccc3Nc3c4ccccc4nc4cc([N+](=O)[O-])ccc34)c3ccccc3nc2c1 |  | 41.4 µM |  | 22.9 µM |  | 15.3 µM |  | 32.4 µM |  | 60.5 µM |  | 16.6 µM |  | 49.8 µM |  | 49.8 µM |  | 36.1 µM |  | 39.9 µM
17 | CCN(CC)C(=O)COc1cc2c(O)c3c(O)c(C)c4c(c13)C(=O)C(C)(OC=CC(OC)C(C)C(OC(C)=O)C(C)C(O)C(C)C(O)C(C)C=CC=C(C)C(=O)N2)O4 (stereo not drawn) |  | > 100 µM |  | > 100 µM |  | > 100 µM |  | > 100 µM |  | > 100 µM |  | > 100 µM |  | > 100 µM |  | > 100 µM |  | > 100 µM |  | > 100 µM
18 | C=CCCCOC1[C@H](OCc2ccccc2)C(OCc2ccccc2)C(OC)O[C@@H]1CNC(=O)c1cccc(I)c1 (stereo partly drawn) | > 100 µM | > 100 µM | 4.66 µM | > 100 µM | 2.91 µM | 8.64 µM | 21.9 µM | > 100 µM | 4.14 µM | > 100 µM | > 100 µM | > 100 µM | 5.38 µM | > 100 µM | 8.82 µM | > 100 µM | 17.7 µM | > 100 µM | 26 µM | > 100 µM
19 | OCc1ccc(N2CCCC2)cc1Cl | 10.2 µM | > 100 µM | 5.52 µM | > 60.8 µM | 3.55 µM | 28.5 µM | 0.146 µM | 0.365 µM | 1.78 µM | 37.4 µM | 15.7 µM | 69.9 µM | > 61.3 µM | > 100 µM | 0.338 µM | 1.28 µM | 0.452 µM | 2 µM | 46 µM | > 100 µM
20 | O=C(NN1C(=O)CSC1c1ccc(F)cc1)C(O)c1ccccc1 (stereo not drawn) | > 100 µM | > 100 µM | 97.4 µM | > 100 µM | 81.8 µM | > 100 µM | > 100 µM | > 100 µM | > 100 µM | > 100 µM | > 100 µM | > 100 µM | > 100 µM | > 100 µM | > 100 µM | > 100 µM | > 100 µM | > 100 µM | > 100 µM | > 100 µM
21 | COCCOCOC(C)(C)[C@H](CCOC(C)=O)O[Si](c1ccccc1)(c1ccccc1)C(C)(C)C |  | 66.7 µM |  | 30.6 µM |  | 24.1 µM |  | 19.8 µM |  | 55.5 µM |  | 26 µM |  | > 100 µM |  | 31.1 µM |  | > 100 µM |  | 75.2 µM
22 | O=c1c(O)cccn1CCCN(CCCn1cccc(O)c1=O)CCn1cccc(O)c1=O | 4.35 µM | > 100 µM | 1.84 µM | > 100 µM | 2.36 µM | > 100 µM | 2.27 µM | 61.8 µM | 3.63 µM | > 100 µM | 5.18 µM | > 100 µM | 1.9 µM | > 100 µM | 3.42 µM | 22.4 µM | 23.6 µM | > 100 µM | 2.26 µM | > 100 µM
